According to US9895346B2, “Applications of substituent benzyloxy group containing ether compounds for preparing antitumor drugs” (Sinochem Corporation, priority 2013, dated 2018):

Assays:
[1] = system: prostate cancer cell line LNCap; test: In vitro cell inhibition assay (crystal violet), prostate cancer LNCap; type: cell-based, human; conditions: 5.0 μM
Description: (§1) In vitro Cell inhibition assay is as follows:
(§2) The human cancer cell lines used for this assay were bladder cancer J82, T24, prostate cancer LNCap, PC-3, lung cancer A549, H157, H460, H520, colon cancer HCT8, HCT116, RkO, and leukemia HL-60, etc.
(§3) In vitro cell culture technology was selected for the determination of inhibition rate bladder cancer cell lines J82 and T24, prostate cancer cell lines LNCap and PC-3, lung cancer cell lines A549, H157, H460 and H520. 1000 to 3000 cells were inoculated to 24-well plate, followed by addition of 1 mL culture medium well known to researchers in this field to each well, the cells were cultured in 5% incubator for 24 hours at 37° C., then the different concentration compounds and controls were added to each well. It should be noted that the added volume is not more than 0.5% of total volume. After completion of addition, the cells continued being cultured in incubator for one week, the culture medium was removed and washed by cold PBS of 1 mL once, and then fixed for 10 minutes at room temperature with 1% formalin, followed by wash with PBS of 1 mL. After fixation, stain was carried out with 0.1% crystal violet for 30 minutes. 0.1% crystal violet was recycled. The stained cells were washed gently with deionized water, dried at room temperature and kepted. The inhibition rate was calculated according to the foiling equation. The controls are Selumetinib (AZD6244), Gefitinib, Cisplatin. Inhibition rate=number of left cells each treatment/number of left cells of untreated control×100%

[2] = system: bladder cancer cell line J82; test: In vitro cell inhibition assay (crystal violet), bladder cancer J82; type: cell-based, human
Description: as §1, §2, §3

[3] = system: prostate cancer cell line PC-3; test: In vitro cell inhibition assay (crystal violet), prostate cancer PC-3; type: cell-based, human; conditions: PC-3, 5.0 μM
Description: as §1, §2, §3

[4] = system: bladder cancer cell line T24; test: In vitro cell inhibition assay (crystal violet), bladder cancer T24; type: cell-based, human
Description: as §1, §2, §3

[5] = system: colon cancer HCT116; test: In vitro cell inhibition assay, colon cancer HCT116; type: cell-based, human
Description: as §1, §2

[6] = system: lung cancer cell line A549; test: In vitro cell inhibition assay (crystal violet), lung cancer A549; type: cell-based, human
Description: as §1, §2, §3

[7] = system: lung cancer cell line H460; test: In vitro cell inhibition assay (crystal violet), lung cancer H460; type: cell-based, human
Description: as §1, §2, §3

[8] = system: lung cancer cell line H520; test: In vitro cell inhibition assay (crystal violet), lung cancer H520; type: cell-based, human
Description: as §1, §2, §3

[9] = system: colon cancer RkO; test: In vitro cell inhibition assay, colon cancer RkO; type: cell-based, human
Description: as §1, §2

[10] = system: colon cancer HCT8; test: In vitro cell inhibition assay, colon cancer HCT8; type: cell-based, human
Description: as §1, §2

[11] = system: human leukemia HL-60 cells; test: Proliferation inhibition of human leukemia HL-60 cells, MTT method; type: cell-based; conditions: 48 h incubation, OPTI-MEM medium
Description: The inhibition rate of human leukemia HL-60 cells was evaluated by regular MTT method. The human leukemia HL-60 cells were picked up from cell incubator, after washed for twice using PBS, cells were digested by 0.25% trypsin, and then add medium to terminate the digestion. After cells were collected using centrifuge and re-suspended, counting cells under inverted microscope and adding medium to make a density which was 5×10^4 cells/mL. After 100 μL aliquots were added to each well of 96-well microtiter plates, cells were cultured in 5% incubator for overnight at 37° C., then the different concentration compounds were added to each well. After incubation for 48 h, MTT solution was added to each well and plates were then incubated for 4 h. The MTT tetrazolium was reduced to formazan by living cells. Then the formazan crystals were dissolved though adding DMSO to each well. The absorbance was read at 570 nm with a microplate reader.

CO/C=C(/C(=O)OC)c1ccccc1Oc1cc(Oc2ccccc2C#N)ncn1 [Azoxystrobin]
Inhibition rate on human cancer cells [1]: 0% | Inhibition rate on human cancer cells ([2]; J82, 5.0 μM): 0% | Inhibition rate on human cancer cells [3]: 0% | Inhibition rate on human cancer cells ([4]; T24, 5.0 μM): 0%

N.N.[Cl][Pt][Cl] [Cisplatin, reference compound]
Inhibition rate on human cancer cells ([2]; J82, 0.25 μM): 0% | Inhibition rate on human cancer cells ([2]; J82, 0.5 μM): 0% | Inhibition rate on human cancer cells ([2]; J82, 1.0 μM): 0% | Inhibition rate on human cancer cells ([2]; J82, 2.5 μM): 5% | Inhibition rate on human cancer cells ([2]; J82, 5.0 μM): 20% | Inhibition rate on human cancer cells ([5]; HCT 116, 0.25 μM): 0% | Inhibition rate on human cancer cells ([5]; HCT 116, 0.5 μM): 0% | Inhibition rate on human cancer cells ([5]; HCT 116, 1.0 μM): 5% | Inhibition rate on human cancer cells ([5]; HCT 116, 2.5 μM): 20% | Inhibition rate on human cancer cells ([5]; HCT 116, 5.0 μM): 50% | Inhibition rate on human cancer cells ([6]; A549, 0.25 μM): 0% | Inhibition rate on human cancer cells ([6]; A549, 0.5 μM): 0% | Inhibition rate on human cancer cells ([6]; A549, 1.0 μM): 5% | Inhibition rate on human cancer cells ([6]; A549, 2.5 μM): 30% | Inhibition rate on human cancer cells ([6]; A549, 5.0 μM): 80% | Inhibition rate on human cancer cells ([7]; H460, 0.25 μM): 0% | Inhibition rate on human cancer cells ([7]; H460, 0.5 μM): 0% | Inhibition rate on human cancer cells ([7]; H460, 1.0 μM): 5% | Inhibition rate on human cancer cells ([7]; H460, 2.5 μM): 30% | Inhibition rate on human cancer cells ([7]; H460, 5.0 μM): 90% | Inhibition rate on human cancer cells ([8]; H520, 0.25 μM): 0% | Inhibition rate on human cancer cells ([8]; H520, 0.5 μM): 5% | Inhibition rate on human cancer cells ([8]; H520, 1.0 μM): 20% | Inhibition rate on human cancer cells ([8]; H520, 2.5 μM): 30% | Inhibition rate on human cancer cells ([8]; H520, 5.0 μM): 50% | Inhibition rate on human cancer cells ([9]; 0.25 μM): 0% | Inhibition rate on human cancer cells ([9]; 0.5 μM): 5% | Inhibition rate on human cancer cells ([9]; 1.0 μM): 10% | Inhibition rate on human cancer cells ([9]; 2.5 μM): 50% | Inhibition rate on human cancer cells ([9]; 5.0 μM): 70% | Inhibition rate on human cancer cells ([4]; T24, 0.25 μM): 0% | Inhibition rate on human cancer cells ([4]; T24, 0.5 μM): 0% | Inhibition rate on human cancer cells ([4]; T24, 1.0 μM): 0% | Inhibition rate on human cancer cells ([4]; T24, 2.5 μM): 5% | Inhibition rate on human cancer cells ([4]; T24, 5.0 μM): 20% | Inhibition rate on human cancer cells ([10]; HCT 8, 0.25 μM): 5% | Inhibition rate on human cancer cells ([10]; HCT 8, 0.5 μM): 10% | Inhibition rate on human cancer cells ([10]; HCT 8, 1.0 μM): 50% | Inhibition rate on human cancer cells ([10]; HCT 8, 2.5 μM): 70% | Inhibition rate on human cancer cells ([10]; HCT 8, 5.0 μM): 90%

COC=C(C(=O)OC)c1ccccc1COc1ccc2c(C(F)(F)F)cc(=O)oc2c1 [Compound 28-7]
Inhibition rate on human cancer cells ([6]; A549, 2.5 μM): 70% | Inhibition rate on human cancer cells ([6]; A549, 5.0 μM): 90% | Proliferation inhibitory effect on human leukemia HL-60 cell (%) ([11]; concentration 1 μM): 42.3% | Proliferation inhibitory effect on human leukemia HL-60 cell (%) ([11]; concentration 10 μM): 71.0% | Proliferation inhibitory effect on human leukemia HL-60 cell (%) ([11]; concentration 100 μM): 83.9% | Inhibition rate on human cancer cells ([7]; H460, 2.5 μM): 80% | Inhibition rate on human cancer cells ([7]; H460, 5.0 μM): 95% | Inhibition rate on human cancer cells ([8]; H520, 2.5 μM): 80% | Inhibition rate on human cancer cells ([8]; H520, 5.0 μM): 100%

CCCc1c(C)c2ccc(OCc3ccccc3C(=COC)C(=O)OC)cc2oc1=O [Compound 28-27]
Inhibition rate on human cancer cells ([6]; A549, 1.0 μM): 80% | Inhibition rate on human cancer cells ([6]; A549, 2.5 μM): 90% | Inhibition rate on human cancer cells ([6]; A549, 5.0 μM): 95% | Proliferation inhibitory effect on human leukemia HL-60 cell (%) ([11]; concentration 1 μM): 59.0% | Proliferation inhibitory effect on human leukemia HL-60 cell (%) ([11]; concentration 10 μM): 79.9% | Proliferation inhibitory effect on human leukemia HL-60 cell (%) ([11]; concentration 100 μM): 83.9% | Inhibition rate on human cancer cells ([7]; H460, 1.0 μM): 80% | Inhibition rate on human cancer cells ([7]; H460, 2.5 μM): 95% | Inhibition rate on human cancer cells ([7]; H460, 5.0 μM): 95% | Inhibition rate on human cancer cells ([8]; H520, 0.5 μM): 95% | Inhibition rate on human cancer cells ([8]; H520, 1.0 μM): 100% | Inhibition rate on human cancer cells ([8]; H520, 2.5 μM): 100% | Inhibition rate on human cancer cells ([8]; H520, 5.0 μM): 100%
